Holding throughout (assay): Kinase selectivity, DiscoverX scanMAX Kinase assay panel (% control)
What all share (format): binding

For test [1], the target named is T1, kinases of the scanMAX Kinase assay panel (Homo sapiens, UniProt P00533, DEL746-750).
T1 construct: purchased DiscoverX Co. (contract measurement) scanMAX Kinase assay panel
The conditions noted are these: EGFR(E746-A750de1); 1 uM. The procedure, abridged: (§1)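 Percent of control computed as (compound − positive control)/(negative control − positive control) × 100, DMSO defining 100% and positive control 0%. Each panel kinase exposed to 1 uM compound; values under 35% taken to mean the compound acts on that kinase.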

Test [2] deals with T2, kinases of the scanMAX Kinase assay panel (Homo sapiens, UniProt P27448).
T2 construct: purchased DiscoverX Co. (contract measurement) scanMAX Kinase assay panel
The conditions noted are these: MARK3; 1 uM. A digest of the protocol:
as §1

Test [3] addresses T3, kinases of the scanMAX Kinase assay panel (Homo sapiens, UniProt P48729).
T3 construct: purchased DiscoverX Co. (contract measurement) scanMAX Kinase assay panel
Particulars: CSNK1A1; 1 uM. The procedure, abridged:
as §1

The target in test [4] is T4, kinases of the scanMAX Kinase assay panel (Homo sapiens, UniProt Q7KZI7).
T4 construct: purchased DiscoverX Co. (contract measurement) scanMAX Kinase assay panel
The conditions noted are these: MARK2; 1 uM. A digest of the protocol:
as §1

For test [5], the target named is T5, kinases of the scanMAX Kinase assay panel (Homo sapiens, UniProt Q8WU08).
T5 construct: purchased DiscoverX Co. (contract measurement) scanMAX Kinase assay panel
Particulars: kinase YANK1; 1 uM in DMSO. The procedure, abridged:
as §1

Test [6] has as its target T6, kinases of the scanMAX Kinase assay panel (Homo sapiens, UniProt Q9H4A3).
T6 construct: purchased DiscoverX Co. (contract measurement) scanMAX Kinase assay panel
Particulars: kinase WNK1; 1 uM in DMSO. A digest of the protocol:
as §1

Test [7] addresses T7, kinases of the scanMAX Kinase assay panel (Homo sapiens, UniProt Q9NYY3).
T7 construct: purchased DiscoverX Co. (contract measurement) scanMAX Kinase assay panel
Particulars: PLK2; 1 uM. The procedure, abridged: as §1

Test [8] concerns the target T8, kinases of the scanMAX Kinase assay panel (Homo sapiens, UniProt Q9UPZ9).
T8 construct: purchased DiscoverX Co. (contract measurement) scanMAX Kinase assay panel
T8 sequence (Q9UPZ9 1-632): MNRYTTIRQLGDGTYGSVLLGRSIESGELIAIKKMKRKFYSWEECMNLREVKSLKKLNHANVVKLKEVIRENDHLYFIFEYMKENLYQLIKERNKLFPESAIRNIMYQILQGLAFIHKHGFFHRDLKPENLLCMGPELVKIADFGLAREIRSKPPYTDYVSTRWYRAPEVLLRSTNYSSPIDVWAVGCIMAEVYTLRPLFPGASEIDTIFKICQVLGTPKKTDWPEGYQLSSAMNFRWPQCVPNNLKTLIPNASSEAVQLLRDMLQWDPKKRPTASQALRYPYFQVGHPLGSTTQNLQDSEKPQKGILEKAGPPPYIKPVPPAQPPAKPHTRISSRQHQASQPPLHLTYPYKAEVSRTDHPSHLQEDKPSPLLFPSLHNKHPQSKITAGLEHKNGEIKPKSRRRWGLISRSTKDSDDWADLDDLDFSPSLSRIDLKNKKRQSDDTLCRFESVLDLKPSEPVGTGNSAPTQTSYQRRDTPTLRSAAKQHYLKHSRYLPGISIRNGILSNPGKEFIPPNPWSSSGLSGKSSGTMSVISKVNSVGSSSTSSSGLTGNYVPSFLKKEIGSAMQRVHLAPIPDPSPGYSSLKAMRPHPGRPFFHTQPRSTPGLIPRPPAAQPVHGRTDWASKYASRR
The conditions noted are these: ICK; 1 uM. A digest of the protocol:
as §1

Test [9] deals with T9, kinases of the scanMAX Kinase assay panel (Homo sapiens, UniProt Q9UQB9).
T9 construct: purchased DiscoverX Co. (contract measurement) scanMAX Kinase assay panel
T9 sequence (Q9UQB9 1-309): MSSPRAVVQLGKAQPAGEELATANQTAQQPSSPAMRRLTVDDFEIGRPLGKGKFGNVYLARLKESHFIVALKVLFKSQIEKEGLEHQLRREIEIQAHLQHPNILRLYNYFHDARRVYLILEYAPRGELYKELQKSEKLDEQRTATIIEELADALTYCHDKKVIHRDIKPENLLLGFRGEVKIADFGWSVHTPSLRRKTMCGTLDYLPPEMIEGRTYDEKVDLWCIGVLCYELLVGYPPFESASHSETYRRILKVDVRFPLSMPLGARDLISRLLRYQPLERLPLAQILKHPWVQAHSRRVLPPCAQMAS
Particulars: AURKC; 1 uM. The procedure, abridged:
as §1

Test [10] addresses T10, kinases of the scanMAX Kinase assay panel (Homo sapiens, UniProt Q9Y2H9).
T10 construct: purchased DiscoverX Co. (contract measurement) scanMAX Kinase assay panel
Particulars: MAST1; 1 uM. A digest of the protocol: as §1

The target of test [11] is T11, kinases of the scanMAX Kinase assay panel (Mycobacterium tuberculosis, UniProt P9WI81).
T11 construct: purchased DiscoverX Co. (contract measurement) scanMAX Kinase assay panel
Particulars: read-out: % control. The procedure, abridged: as §1

For test [12], the target named is T12, kinases of the scanMAX Kinase assay panel (Plasmodium falciparum, UniProt P61075).
T12 construct: purchased DiscoverX Co. (contract measurement) scanMAX Kinase assay panel
The conditions noted are these: PFPK5(P. falciparum); 1 uM. A digest of the protocol: as §1

T4 sequence (Q7KZI7 whole entry): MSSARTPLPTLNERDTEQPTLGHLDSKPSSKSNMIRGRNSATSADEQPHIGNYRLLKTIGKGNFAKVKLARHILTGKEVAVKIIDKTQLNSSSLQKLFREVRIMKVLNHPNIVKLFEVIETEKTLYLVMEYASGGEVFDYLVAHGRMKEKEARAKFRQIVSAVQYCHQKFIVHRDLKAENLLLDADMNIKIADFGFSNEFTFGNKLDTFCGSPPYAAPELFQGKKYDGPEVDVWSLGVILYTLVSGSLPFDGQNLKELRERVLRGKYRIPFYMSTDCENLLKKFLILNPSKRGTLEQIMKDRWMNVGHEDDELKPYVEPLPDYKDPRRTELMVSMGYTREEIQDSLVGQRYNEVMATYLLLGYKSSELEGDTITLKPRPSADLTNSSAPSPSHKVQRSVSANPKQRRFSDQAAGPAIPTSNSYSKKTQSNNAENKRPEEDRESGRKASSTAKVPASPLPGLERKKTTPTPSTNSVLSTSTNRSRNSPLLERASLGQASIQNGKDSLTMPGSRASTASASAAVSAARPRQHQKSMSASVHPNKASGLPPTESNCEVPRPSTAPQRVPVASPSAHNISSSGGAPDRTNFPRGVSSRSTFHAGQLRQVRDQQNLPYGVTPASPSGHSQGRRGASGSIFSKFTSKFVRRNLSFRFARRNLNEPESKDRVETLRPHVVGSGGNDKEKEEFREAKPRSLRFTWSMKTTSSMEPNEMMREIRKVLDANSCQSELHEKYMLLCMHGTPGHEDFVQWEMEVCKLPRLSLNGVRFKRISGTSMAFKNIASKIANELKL
T11 sequence (P9WI81 whole entry): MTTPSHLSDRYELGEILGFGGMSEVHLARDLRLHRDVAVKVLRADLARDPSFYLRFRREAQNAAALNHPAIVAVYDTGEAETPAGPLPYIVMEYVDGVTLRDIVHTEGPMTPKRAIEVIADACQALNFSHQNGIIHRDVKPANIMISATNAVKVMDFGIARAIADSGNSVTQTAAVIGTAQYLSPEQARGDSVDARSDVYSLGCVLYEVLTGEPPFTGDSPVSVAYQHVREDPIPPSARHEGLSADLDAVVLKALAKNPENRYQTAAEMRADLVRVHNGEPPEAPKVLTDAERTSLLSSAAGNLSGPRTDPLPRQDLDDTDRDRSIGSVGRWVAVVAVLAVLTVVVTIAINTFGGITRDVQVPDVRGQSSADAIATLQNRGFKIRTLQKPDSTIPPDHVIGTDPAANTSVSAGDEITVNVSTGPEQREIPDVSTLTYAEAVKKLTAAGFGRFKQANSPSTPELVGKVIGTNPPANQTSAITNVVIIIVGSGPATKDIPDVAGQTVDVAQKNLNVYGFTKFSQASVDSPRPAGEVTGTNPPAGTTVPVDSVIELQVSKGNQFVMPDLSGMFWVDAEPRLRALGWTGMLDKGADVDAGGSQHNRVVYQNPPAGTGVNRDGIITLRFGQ
T10 sequence (Q9Y2H9 whole entry): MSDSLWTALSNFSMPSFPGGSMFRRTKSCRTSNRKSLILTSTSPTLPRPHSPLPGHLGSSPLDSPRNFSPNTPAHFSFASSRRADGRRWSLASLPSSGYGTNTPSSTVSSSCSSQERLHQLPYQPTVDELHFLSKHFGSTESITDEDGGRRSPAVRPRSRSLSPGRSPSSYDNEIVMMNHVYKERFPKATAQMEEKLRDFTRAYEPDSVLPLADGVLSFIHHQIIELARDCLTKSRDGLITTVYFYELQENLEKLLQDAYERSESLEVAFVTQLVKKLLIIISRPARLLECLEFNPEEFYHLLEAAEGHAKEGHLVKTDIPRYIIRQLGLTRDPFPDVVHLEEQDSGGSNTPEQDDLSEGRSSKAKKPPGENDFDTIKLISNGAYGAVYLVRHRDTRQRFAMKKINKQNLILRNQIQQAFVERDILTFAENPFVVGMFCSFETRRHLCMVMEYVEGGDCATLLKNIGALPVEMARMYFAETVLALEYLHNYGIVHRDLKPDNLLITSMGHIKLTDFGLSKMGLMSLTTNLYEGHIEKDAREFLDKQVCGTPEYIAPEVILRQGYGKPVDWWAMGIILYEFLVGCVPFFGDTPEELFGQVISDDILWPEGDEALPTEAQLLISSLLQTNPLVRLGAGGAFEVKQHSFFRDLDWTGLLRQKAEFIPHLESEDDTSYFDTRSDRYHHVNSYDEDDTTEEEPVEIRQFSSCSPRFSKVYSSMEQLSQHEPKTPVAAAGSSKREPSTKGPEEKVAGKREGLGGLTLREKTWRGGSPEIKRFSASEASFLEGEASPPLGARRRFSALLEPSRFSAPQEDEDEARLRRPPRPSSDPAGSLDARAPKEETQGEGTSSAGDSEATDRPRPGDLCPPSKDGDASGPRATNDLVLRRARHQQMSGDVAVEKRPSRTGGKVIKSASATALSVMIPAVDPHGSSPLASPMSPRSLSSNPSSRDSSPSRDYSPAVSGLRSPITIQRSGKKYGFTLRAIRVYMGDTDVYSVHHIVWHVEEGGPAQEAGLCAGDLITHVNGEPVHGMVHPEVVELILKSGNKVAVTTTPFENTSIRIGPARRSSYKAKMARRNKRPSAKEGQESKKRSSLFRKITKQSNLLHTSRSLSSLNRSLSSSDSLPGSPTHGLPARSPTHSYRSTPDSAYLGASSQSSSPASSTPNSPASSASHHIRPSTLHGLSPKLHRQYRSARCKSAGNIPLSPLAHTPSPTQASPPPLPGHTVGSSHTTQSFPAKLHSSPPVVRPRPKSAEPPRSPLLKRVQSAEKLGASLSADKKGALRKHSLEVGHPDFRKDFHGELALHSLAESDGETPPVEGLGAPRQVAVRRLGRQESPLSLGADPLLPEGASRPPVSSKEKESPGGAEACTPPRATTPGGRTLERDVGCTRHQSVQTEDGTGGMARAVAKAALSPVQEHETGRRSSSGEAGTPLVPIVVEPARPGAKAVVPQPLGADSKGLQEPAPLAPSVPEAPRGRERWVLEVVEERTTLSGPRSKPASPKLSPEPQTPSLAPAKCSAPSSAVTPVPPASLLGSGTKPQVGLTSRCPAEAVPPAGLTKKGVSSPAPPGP
T5 sequence (Q8WU08 whole entry): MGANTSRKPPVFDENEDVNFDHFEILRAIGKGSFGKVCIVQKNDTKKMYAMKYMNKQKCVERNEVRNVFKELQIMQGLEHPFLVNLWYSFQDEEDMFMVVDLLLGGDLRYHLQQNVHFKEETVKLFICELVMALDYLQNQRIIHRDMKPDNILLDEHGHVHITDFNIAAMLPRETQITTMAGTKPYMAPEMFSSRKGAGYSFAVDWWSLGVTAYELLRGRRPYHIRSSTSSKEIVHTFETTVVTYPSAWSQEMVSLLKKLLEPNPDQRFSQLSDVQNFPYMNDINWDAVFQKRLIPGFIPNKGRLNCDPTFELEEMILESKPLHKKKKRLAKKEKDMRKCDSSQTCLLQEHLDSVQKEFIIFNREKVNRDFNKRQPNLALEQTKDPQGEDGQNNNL
T7 sequence (Q9NYY3 whole entry): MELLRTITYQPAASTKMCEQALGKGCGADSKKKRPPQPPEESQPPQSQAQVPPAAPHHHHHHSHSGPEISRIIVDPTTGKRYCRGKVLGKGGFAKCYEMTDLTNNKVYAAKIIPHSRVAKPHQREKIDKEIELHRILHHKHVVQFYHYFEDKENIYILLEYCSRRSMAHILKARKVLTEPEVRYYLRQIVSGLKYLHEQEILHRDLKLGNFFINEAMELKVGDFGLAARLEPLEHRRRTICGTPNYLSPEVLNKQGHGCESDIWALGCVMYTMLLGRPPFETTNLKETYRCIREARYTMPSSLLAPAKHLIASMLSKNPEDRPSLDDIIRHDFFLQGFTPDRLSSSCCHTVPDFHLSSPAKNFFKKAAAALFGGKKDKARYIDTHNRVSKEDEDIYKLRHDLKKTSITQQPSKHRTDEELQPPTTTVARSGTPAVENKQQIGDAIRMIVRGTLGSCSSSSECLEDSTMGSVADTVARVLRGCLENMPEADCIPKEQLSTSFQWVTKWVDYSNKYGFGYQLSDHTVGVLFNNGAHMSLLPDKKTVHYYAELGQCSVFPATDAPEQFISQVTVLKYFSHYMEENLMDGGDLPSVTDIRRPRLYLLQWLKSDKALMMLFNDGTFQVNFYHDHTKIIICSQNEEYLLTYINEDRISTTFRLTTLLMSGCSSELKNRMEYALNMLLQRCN
T2 sequence (P27448 whole entry): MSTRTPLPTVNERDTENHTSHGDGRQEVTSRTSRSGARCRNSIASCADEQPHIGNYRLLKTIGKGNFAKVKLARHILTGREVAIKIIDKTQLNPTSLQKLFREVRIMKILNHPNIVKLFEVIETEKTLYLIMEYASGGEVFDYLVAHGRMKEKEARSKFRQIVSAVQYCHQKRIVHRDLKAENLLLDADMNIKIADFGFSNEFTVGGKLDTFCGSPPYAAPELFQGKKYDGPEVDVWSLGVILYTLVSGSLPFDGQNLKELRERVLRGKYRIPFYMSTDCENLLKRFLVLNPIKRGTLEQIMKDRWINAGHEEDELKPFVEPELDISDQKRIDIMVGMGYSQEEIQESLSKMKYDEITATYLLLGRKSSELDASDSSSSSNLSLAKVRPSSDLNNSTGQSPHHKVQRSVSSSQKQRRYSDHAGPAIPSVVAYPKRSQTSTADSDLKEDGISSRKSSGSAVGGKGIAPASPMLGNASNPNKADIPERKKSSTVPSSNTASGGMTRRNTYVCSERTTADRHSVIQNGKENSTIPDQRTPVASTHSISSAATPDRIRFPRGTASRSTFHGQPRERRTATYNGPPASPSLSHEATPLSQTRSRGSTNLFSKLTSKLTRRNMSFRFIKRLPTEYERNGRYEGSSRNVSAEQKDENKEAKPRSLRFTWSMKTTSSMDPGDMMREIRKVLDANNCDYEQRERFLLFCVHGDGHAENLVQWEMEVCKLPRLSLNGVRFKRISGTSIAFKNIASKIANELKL

In the case of `CNc1nc(Nc2ccc(C(=O)N3CCOCC3)cc2OC)nc2[nH]cc(C#N)c12` [Example 1, 2-((2-methoxy-4-(morpholine-4-carbonyl)phenyl)amino)-4-(methylamino)-7H-pyrrolo[2,3-d]pyrimidine-5-carbonitrile], the remaining binding at 1 µM amounted to 97% in test [1]; 100% in [2]; 19% in [3]; 100% in test [4]; 76% in test [5]; 70% in test [6]. For the same compound, the remaining binding at 1 µM in [7] turned out to be 81%; in [8] it was 73%; in test [9], 100%; in [10], 100%; in test [11], 90%; in [12] it was 76%.

Consider `CC1(Nc2nc(Nc3cnn([C@H]4CCN(C5COC5)C[C@@H]4F)c3Cl)nc3[nH]cc(C#N)c23)CC1` [Example 52, 2-((5-chloro-1-((3S,4S)-3-fluoro-1-(oxetane-3-yl)piperidine-4-yl)-1H-pyrazole-4-yl)amino)((1-methylcyclopropyl)amino)-7H-pyrrolo[2,3-d]pyrimidine-5-carbonitrile], for which the remaining binding at 1 µM in test [1] was found to be 59%; in test [2] it was 29%; in test [3] it was 1.6%; in [4] it was 9.5%; in test [5] it was 88%; in test [6] it was 99%. Besides, the remaining binding at 1 µM in [7] was determined as 93%; in [8] it was 71%; in test [9], 7.1%; in test [10], 74%; in [11] it was 1.1%; in test [12], 100%.

Take `CCNc1nc(Nc2ccc(C(=O)N3CCC(N4CCOCC4)CC3)cc2OC)nc2[nH]cc(C(F)(F)F)c12` [Example 104, (4-((4-(ethylamino)-5-(trifluoromethyl)-7H-pyrrolo[2,3-d]pyrimidine-2-yl)amino)-3-methoxyphenyl)(4-morpholinopiperidine-1-yl)methanone]: the remaining binding at 1 µM in [1] was 100%; in [2], 86%; in [3], 56%; in [4], 81%; in test [5] it was 82%; in [6], 100%. Moreover, the remaining binding at 1 µM was 100% in test [7]; 96% in test [8]; 100% in [9]; 72% in test [10]; 83% in [11]; 100% in test [12].

These data come from patent US11208412B2 (DAEGU-GYEONGBUK MEDICAL INNOVATION FOUNDATION, priority 2017, dated 2021).
